Experimental data reported in ChEMBL document CHEMBL1177695, “Discovery and development of natural product-derived chemotherapeutic agents based on a medicinal chemistry approach” (J Nat Prod, 2010).
≈ marks a conversion by molar mass, not a printed value. Values belong to the molecule of their own block, whether it stands above or below them.

Key:
[1] = tested on: KB; experiment: Cytotoxicity against human KB cells after 72 hrs by MTT assay; assay type: functional, cell-based; details: for EC50: read-out: ED50 (the source's name)
[2] = Cytotoxicity against human KB1 cells after 72 hrs by MTT assay; assay type: functional, cell-based; details: KB1, 72 h
[3] = Cytotoxicity against human KB-7d cells after 72 hrs by MTT assay; assay type: functional, cell-based; details: KB7D; for EC50: read-out: ED50 (the source's name)
[4] = tested on: KB; experiment: Cytotoxicity against human etoposide-resistant KB cells after 72 hrs by MTT assay
[5] = Inhibition of tubulin polymerization
[6] = tested on: Human immunodeficiency virus 1; experiment: Antiviral activity against HIV1 3B infected in H9 cells assessed as inhibition of viral replication by p24 antigen ELISA; assay type: functional, organism-based; details: Human immunodeficiency virus 1, 3B, H9; read-out: EC50
[7] = Therapeutic index, ratio of IC50 for human H9 cells to EC50 for HIV 3B; assay type: cell-based; details: read-out: TI
[8] = tested on: A549; experiment: Cytotoxicity against human A549 cells after 3 days by sulforhodamine B assay; assay type: functional, cell-based; details: A549, 72 h
[9] = tested on: 1A9; experiment: Cytotoxicity against human 1A9 cells after 3 days by sulforhodamine B assay; assay type: functional, cell-based; details: 1A9, 72 h
[10] = tested on: A-431; experiment: Cytotoxicity against human A431 cells after 3 days by sulforhodamine B assay; assay type: functional, cell-based; details: A-431, 72 h
[11] = tested on: HCT-8; experiment: Cytotoxicity against human HCT8 cells after 3 days by sulforhodamine B assay; assay type: functional, cell-based; details: HCT-8, 72 h
[12] = tested on: PC-3; experiment: Cytotoxicity against human PC3 cells after 3 days by sulforhodamine B assay; assay type: functional, cell-based; details: PC-3, 72 h
[13] = tested on: KB; experiment: Cytotoxicity against human KB cells after 3 days by sulforhodamine B assay; assay type: functional, cell-based; details: 72 h
[14] = Cytotoxicity against human KBVIN cells after 3 days by sulforhodamine B assay; assay type: functional, cell-based; details: 72 h
[15] = Cytotoxicity against human H9 cells after 4 days by coulter counter; assay type: cell-based; details: human, H9 cells; read-out: TI
[16] = tested on: Human immunodeficiency virus 1; experiment: Antiviral activity against HIV1 infected in human H9 cells after 4 days by p24 antigen ELISA; assay type: functional, organism-based; details: Human immunodeficiency virus 1, H9, 96 h
[17] = Therapeutic index, ratio of IC50 for human H9 cells to EC50 for HIV1; assay type: cell-based; details: read-out: TI

SMILES: COC(=O)c1ccc(N[C@@H]2c3cc4c(cc3[C@@H](c3cc(OC)c(O)c(OC)c3)[C@H]3C(=O)OC[C@@H]32)OCO4)cc1
IC50 [1]: 840 nM | IC50 [2]: 2500 nM | IC50 [3]: 7000 nM | IC50 [4]: 3300 nM

IC50 [5]: 500 nM
SMILES: COc1cc2c(c(OC)c1OC)-c1ccc(SC)cc1C(=O)CC2

EC50 [6]: 67 nM
SMILES: COc1c(C)c(O)c(C(=O)/C=C(\O)c2ccccc2)c(O)c1C=O
selectivity ratio [7]: 489

EC50 [6]: 44 nM
SMILES: Cc1cn([C@H]2C[C@H](N=[N+]=[N-])[C@@H](CO)O2)c(=O)[nH]c1=O [ZIDOVUDINE]

SMILES: C[C@@H]1O[C@@H](O[C@H]2CC[C@]3(C=O)[C@H]4CC[C@]5(C)[C@@H](c6ccc(=O)oc6)CC[C@]5(O)[C@@H]4CC[C@]3(O)C2)[C@@H](O)[C@H](O)[C@@H]1O [KALANCHOSIDE B]
IC50 [8]: 1 ng/mL (≈ 0.00178 µM) | IC50 [9]: 7 ng/mL (≈ 0.0124 µM) | IC50 [10]: 22 ng/mL (≈ 0.0391 µM) | IC50 [11]: 15 ng/mL (≈ 0.0267 µM) | IC50 [12]: 10 ng/mL (≈ 0.0178 µM) | IC50 [13]: 5 ng/mL (≈ 0.00889 µM) | IC50 [14]: 13 ng/mL (≈ 0.0231 µM)

EC50 [6]: 1300 nM
SMILES: CC(=O)O[C@@H]1[C@H](OC(=O)CC(C)C)c2c(ccc3ccc(=O)oc23)OC1(C)C [SUKSDORFIN]
selectivity ratio [7]: 40

EC50 [6]: 6 nM
SMILES: Cc1cc(=O)oc2c3c(ccc12)OC(C)(C)[C@H](OC(=O)C12CCC(C)(C(=O)O1)C2(C)C)[C@@H]3OC(=O)C12CCC(C)(C(=O)O1)C2(C)C (some centres not stated)
selectivity ratio at 96 h [15]: > 39

EC50 [6]: 8 nM
SMILES: Cc1cc2c(c3oc(=O)ccc13)[C@@H](OC(=O)C13CCC(C)(C(=O)O1)C3(C)C)[C@@H](OC(=O)C13CCC(C)(C(=O)O1)C3(C)C)C(C)(C)O2 (some centres not stated)
selectivity ratio at 96 h [15]: > 16

EC50 [6]: 210 nM
SMILES: Cc1cc2ccc(=O)oc2c2c1OC(C)(C)[C@H](OC(=O)C13CCC(C)(C(=O)O1)C3(C)C)[C@@H]2OC(=O)C12CCC(C)(C(=O)O1)C2(C)C (some centres not stated)
selectivity ratio at 96 h [15]: > 16

SMILES: C=C(C)[C@@H]1CC[C@]2(C(=O)O)CC[C@]3(C)[C@H](CC[C@@H]4[C@@]5(C)CC[C@H](OC(=O)COCC(=O)O)C(C)(C)[C@@H]5CC[C@]43C)[C@@H]12
IC50 [16]: 11700 nM | selectivity ratio [17]: 1170

IC50 [5]: 460 nM
SMILES: O=c1cc(-c2ccccc2F)[nH]c2ccc(N3CCCC3)cc12

EC50 [6]: 30 nM
SMILES: COc1cc2ccc3c(c2oc1=O)[C@@H](OC(=O)C12CCC(C)(C(=O)O1)C2(C)C)[C@@H](OC(=O)C12CCC(C)(C(=O)O1)C2(C)C)C(C)(C)O3 (some centres not stated)
selectivity ratio at 96 h [15]: > 15

EC50 [6]: 1900 nM
SMILES: O=C(C[C@H](Cc1ccc(O)c(O)c1)C(=O)O)C1=Cc2cc(O)c(O)cc2[C@H](c2ccc(O)c(O)c2)[C@H]1CC[C@H](Cc1ccc(O)c(O)c1)C(=O)O
selectivity ratio [7]: 33.3

SMILES: COc1cc([C@@H]2c3cc4c(cc3[C@@H](Nc3ccc([N+](=O)[O-])cc3)[C@H]3COC(=O)[C@H]23)OCO4)cc(OC)c1O
IC50 [1]: 490 nM | EC50 [1]: 200 ng/mL (≈ 0.384 µM) | IC50 [2]: 6100 nM | IC50 [3]: 7700 nM | EC50 [3]: 2000 ng/mL (≈ 3.84 µM) | IC50 [4]: 3000 nM

SMILES: COC(=O)C[C@@H]1C(=O)CC[C@H](C)C(=O)O[C@@H]2[C@@H]3[C@@H](OC(C)=O)[C@@]45O[C@@]3(C)COC(=O)c3cnccc3[C@@H](C)[C@@H](O)C(=O)O[C@@H]([C@H](OC(C)=O)[C@H](OC(C)=O)[C@@]4(COC1=O)[C@@H]2OC(C)=O)[C@]5(C)O [TRIPTONINE B]
selectivity ratio [7]: > 1000

SMILES: Cc1c(CBr)c(=O)oc2c3c(ccc12)OC(C)(C)[C@H](OC(=O)C12CCC(C)(C(=O)O1)C2(C)C)[C@@H]3OC(=O)C12CCC(C)(C(=O)O1)C2(C)C (some centres not stated)
EC50 [6]: 0.11 nM | selectivity ratio [7]: 186000

IC50 [5]: 560 nM
SMILES: COc1cc2c(c(OC)c1OC)-c1ccc(SC)c(=O)cc1[C@@H](OC(=O)Oc1ccncc1)CC2

SMILES: C[C@H]1O[C@H](O[C@H]2CC[C@]3(C=O)[C@H]4CC[C@]5(C)[C@@H](c6ccc(=O)oc6)CC[C@]5(O)[C@@H]4CC[C@]3(O)C2)[C@H](O)[C@@H](O)[C@@H]1O [KALANCHOSIDE A]
IC50 [8]: 0.5 ng/mL (≈ 0.000889 µM) | IC50 [9]: 0.8 ng/mL (≈ 0.00142 µM) | IC50 [10]: 7 ng/mL (≈ 0.0124 µM) | IC50 [11]: 6 ng/mL (≈ 0.0107 µM) | IC50 [12]: 2 ng/mL (≈ 0.00355 µM) | IC50 [13]: 3 ng/mL (≈ 0.00533 µM) | IC50 [14]: 3 ng/mL (≈ 0.00533 µM)

SMILES: COc1cc2c(cc1O)[C@@H](Cc1ccc(O)cc1)NCC2
EC50 [6]: 2800 nM | selectivity ratio [7]: 125

SMILES: COc1cc([C@@H]2c3cc4c(cc3[C@@H](Nc3ccc(C(=O)N[C@@H](C)C(=O)OCc5ccccc5)cc3)[C@H]3COC(=O)[C@H]23)OCO4)cc(OC)c1O
EC50 [1]: 500 ng/mL (≈ 0.735 µM) | EC50 [3]: 250 ng/mL (≈ 0.367 µM)

SMILES: COc1cc2c(c(OC)c1OC)-c1ccc(SC)c(=O)cc1C(=O)CC2 [THIOCOLCHICONE]
IC50 [5]: 760 nM
